Measurements reported in a melting point compilation (Tetko et al.; mined from patent text by program, amines drawn as free bases though some values may be those of a salt).

| SMILES | melting point |
| --- | --- |
| O=C(c1cccc2cc[nH]c12)N1CCN(c2ccccc2)CC1 | 217 to 219 °C |
| O=C(Nc1cccnc1)c1ccc([N+](=O)[O-])cc1 | 191 to 194 °C |
| CS(=O)(=O)N1CCCn2c(nc3c(N)nc4cc(OCc5ccccc5)ccc4c32)C1 | 235 to 236 °C |
| O=C(NCc1ccc(Cl)cc1)c1cnc2c(F)cc(O)cc2c1O | 310 to 313 °C |
| COc1ccc(C#Cc2ccccc2)c(CC(C)=O)c1 | 60 to 62 °C |
| O=C(OCCOc1ccccc1)c1sc(Cl)nc1C(F)(F)F | 70 to 72 °C |
| O=C(CC1CCCC1)Nc1ccc2c(c1)C(=O)C(Br)CC2 (configuration not stated) | 162 to 164 °C |
| O=c1cnc2c([nH]1)-c1ccccc1C2=NO | > 300 °C |
| COC(=O)C1(N(O)C(=O)Cc2c(C)cc(Cl)cc2C)CCN(OC)CC1 | 228 to 231 °C |
| COCCOC(=O)c1ccc(-c2ccc(N)cc2)c(C)c1 | 72 to 75 °C |
| O=C(NC1CCNC1=O)c1cccc(-c2cccc3oc(Cc4cccc(C(F)(F)F)c4)cc23)c1 (configuration not stated) | 110 to 120 °C |
| N#Cc1cccc(-c2cncc(OC3SCC(O)C(O)C3O)c2)c1 (configuration not stated) | 172 °C |
| c1ccc(CON=C2CC(=NOCc3ccccc3)c3ccccc3-c3ccccc32)cc1 | 112 °C |
| COc1c(N)nc(Cl)nc1Cl | 155 to 156 °C |
| CCNC(=O)c1cccc2c1c(=O)n(Cc1cccnc1)n2C(=O)OCC | 197 to 198 °C |
| CC(=O)C(C)(C)Nc1ccccc1 | 65 to 66 °C |
| CC(C)OC(=O)c1cc(-n2c(=O)[nH]c(CF)c(F)c2=O)c(F)cc1Cl | 171 to 173 °C |
| Cc1cc(C2(C(F)(F)F)CC(c3ccc(F)cc3)=NO2)ccc1NC(=O)OC(C)(C)C (configuration not stated) | 149 to 150 °C |
| NC(=O)c1ccc(F)c2c1OCC(N(CCCc1c[nH]c3ccc(F)cc13)C1CCC1)C2 (configuration not stated) | 132 °C |
| O=c1oc2cc(N3CCN(CCF)CC3)ccc2cc1-c1nc2ccccc2s1 | 246 °C |
| OC(c1ccc(F)cc1)(c1ccc(F)cc1)C1SCSCS1 | 124 to 125 °C |
| Cc1ccc(C(=O)Nc2ccc(CN3CCN(C)CC3)c(C(F)(F)F)c2)cc1C#Cc1ccc(NC2CC2)nn1 | 68 to 69 °C |
| CCN1CC(c2ccccc2)=C(O)C1=O | 192 to 195 °C |
| O=c1c2cc(F)c(Cl)nc2n(Cc2ccccc2)c(=O)n1OCc1ccccc1 | 209 to 210 °C |

| SMILES | melting point |
| --- | --- |
| CCC(O)(CC)Cc1ccc(NC(=O)/C=C/c2cnn(C)c2-c2ccc(F)cc2)cc1 | 150 to 151 °C |
| Cc1nc2c(C(=O)NC(C)(C(N)=O)C(C)C)c(C(=O)O)ccc2n1Cc1ccccc1 (configuration not stated) | 145 to 150 °C |
| CN1CCCC1=NCCSc1c[nH]c2ccccc12 | 144 to 146 °C |
| C=CCOc1ccc2c(c1)c(C)c(CCC(=O)O)n2Cc1ccc(Cl)cc1 | 131 °C |
| C=CC(=O)Oc1ccc(NS(=O)(=O)CC)cc1 | 99 to 100 °C |
| O=[N+]([O-])c1ccc(C2=NNC(=S)Cc3cc4c(cc32)OCO4)cc1 | 257 to 258 °C |
| COc1ccc(C(=O)Nc2c(Cl)cncc2Cl)c2c1OCC2CC(=O)Nc1c(Cl)cncc1Cl (configuration not stated) | > 300 °C |
| CCc1nc2c(C)cc(C)nc2n1Cc1ccc(C(=Cc2nnn[nH]2)c2ccccc2Cl)cc1 | 28 °C |
| CCCS(=O)(=O)Oc1ccc(-c2c(C)c(C(=O)NN3CCCCC3)nn2-c2ccc(Cl)cc2Cl)cc1 | 190 °C |
| Cc1nnc(S)n1-c1ccccc1F | 119 to 120 °C |
| CCC(C)CNC(=S)NS(=O)(=O)c1sc(Cl)cc1N (configuration not stated) | 116 to 118 °C |
| O=S1(=O)c2ccc(Cl)c3cccc(c23)N1CCCN1CCN(c2ccc(F)cc2)CC1 | 125 °C |
| CC1=Nc2ccc(S(=O)(=O)NC3CCCCC3)cc2S(=O)(=O)N1 | 239 to 242 °C |
| CSC(=O)C(=O)c1ccc(NC=O)nc1 | 152 to 154 °C |
| CC(C)Cn1cc(F)c(NCc2ccccc2F)nc1=O | 118 to 119 °C |
| O=C(Nc1ccc(OC(F)(F)F)cc1)NC1CCN(C(=O)C(F)(F)F)CC1 | 150 to 154 °C |
| O=C(NC(=O)c1cc(F)c(F)cc1Cl)Nc1cccnc1N1CCC(C(=O)NCCO)CC1 | 203 °C |
| CCCCCCCC1=CC(=O)N(c2ccccc2)C1=CBr | 63 to 65 °C |
| CCOP(=O)(OCC)C(CCc1cc(C)nc2cc(-c3ccccc3)nn12)P(=O)(OCC)OCC | 51 to 52 °C |
| CCOC(=O)c1ccccc1SN(C(=O)NC(=O)c1ccccc1Cl)c1ccc(Oc2ccc(C(F)(F)F)cc2Cl)cc1 | 98 to 100 °C |
| [N-]=[N+]=NC1(O)CC(n2cc(Br)c(=O)[nH]c2=O)OC1CO (configuration not stated) | 148 to 149 °C |
| CCCCc1nnc2ccccc2c1Cc1ccc(-c2ccccc2C(=O)O)cc1 | 210 °C |
| O=C(C[N+](=O)[O-])c1ccc(-c2ccc(-c3ccc4ccccc4n3)cc2)cc1 | 160 to 162 °C |
| N#Cc1cc(-c2ccccc2Cl)c[nH]c1=O | 252 to 254 °C |

| SMILES | melting point |
| --- | --- |
| CC(C)OC1C=CC(=O)N1S(=O)(=O)c1ccccc1 (configuration not stated) | 148 to 149 °C |
| CC(=O)c1cccn1[C@@H](Cc1ccc(OCCc2nc(-c3ccccc3)oc2C)cc1)C(=O)O | 110 to 112 °C |
| Cc1cc(CNC(=O)c2cc(-c3ccc(-c4ccccc4C)cc3)nn2C)ccc1OC(C)(C)C(=O)O | 90 to 100 °C |
| CCCCc1cc(OCc2ccc(C#N)cc2)c2ccccc2n1 | 74 °C |
| O=C1CC2(C(=O)N1)C(=O)N(Cc1ccc(Cl)c(Cl)c1)c1ccc(Cl)cc12 (configuration not stated) | 268 to 270 °C |
| CC(=O)Nc1nc(CCc2ccc(CCC(=O)O)s2)cs1 | 164 to 165 °C |
| CC(C)Cc1cnc(O)c([N+](=O)[O-])c1 | 161 to 163 °C |
| COc1ccc(Cn2nc3oc(=O)cc(C)c3c2C)cc1 | 169 to 172 °C |
| CC(C)(C(=O)c1ccc(SCCCCCCS)cc1)N1CCOCC1 | 61 to 64 °C |
| CC(CNc1nc2ccccc2o1)C(=O)NCCCN(C)Cc1ccc(Cl)c(Cl)c1 (configuration not stated) | 134 to 135 °C |
| Clc1ccc(C2(Cl)c3ccc(Cl)cc3-c3ncncc32)cc1 (configuration not stated) | 152 to 153 °C |
| COCCOc1cc2ncc(C#N)c(C)c2cc1OC | 188 to 193 °C |
| Cc1c(NC(=O)CC(C)(C)C)c(C)c2c(C)coc2c1Cc1ccc(C(C)C)cc1 | 171 to 172 °C |
| CCOC(=O)c1c(N(C)CCO)c2ccc(C)nc2n(CC)c1=O | 111 to 113 °C |
| O=C1CCC2=C1C(Cc1ccccc1)(Cc1ccccc1)c1ccccc12 | 155 °C |
| NN=C1CCCCC1n1nc(-c2c(-c3ccccc3)nn3ccccc23)ccc1=O (configuration not stated) | 161 to 162 °C |
| CC(C)(C)OC(=O)N1CCC(Oc2ccc(C#N)c(/C=C/N3CCCC3)c2)CC1 | 115 to 117 °C |
| CCc1nc2c(N)nc3ccc(O)cc3c2n1C | > 240 °C |
| CCOn1nnnc1SC[PH](=O)O | 120 to 122 °C |
| OC[C@H](O)CCOc1nc(N2CCNCC2)nc2ccccc12 | 151 to 156 °C |
| O=C(O)COCCCCSc1cnc(-c2ccccc2)c(-c2ccccc2)n1 | 86 to 88 °C |
| Cc1cc2c(c3oc4ccccc4c(=O)c13)CC(C(=O)O)O2 (configuration not stated) | 231 to 234 °C |
| Cc1c(-c2ccccc2)oc2c(OCC3CO3)cccc2c1=O (configuration not stated) | 128 to 129 °C |
| Fc1cc2c(cc1CN1CCOCC1)Cc1c(-c3ccsc3)n[nH]c1-2 | 222 °C |
